From ChEMBL document CHEMBL1140776, “Parasiticidal 2-alkoxy- and 2-aryloxyiminoalkyl trifluoromethanesulfonanilides” (2008) come the findings set out here.

Format in all cases: functional
Test [1] deals with Ctenocephalides felis. The test can be described thus: Parasiticidal activity against Ctenocephalides felis by cat flea assay.
The subject of test [2] is Ctenocephalides felis. Description: Parasiticidal activity against Ctenocephalides felis assessed as mortality after 24 hrs by cat flea assay. Details: concentration or dose not given beside the values.
In test [3] the test system is Rhipicephalus sanguineus. The test can be described thus: Parasiticidal activity against Rhipicephalus sanguineus assessed per tick by brown dog tick assay.
In test [4] the test system is Rhipicephalus sanguineus. The test can be described thus: Parasiticidal activity against Rhipicephalus sanguineus assessed as mortality after 24 hrs by brown dog tick assay. Details: concentration or dose not given beside the values.
A further test deals with Haemonchus contortus. The test can be described thus: Parasiticidal activity against Haemonchus contortus by larval assay.
Test [5] relates to Ctenocephalides felis. Description: Parasiticidal activity against Ctenocephalides felis after 8 hrs by cat flea assay. Details: concentration or dose not given beside the values.

Each structure is given as a SMILES string.

Compound `CC/C(=N\OC)c1cc(Cl)ccc1NS(=O)(=O)C(F)(F)F` displayed an LC50 in the test with Ctenocephalides felis [1] of 15 ng/cm2. Moreover, the figures for the Activity in the test on Ctenocephalides felis [2] and in the test with Rhipicephalus sanguineus [4] were 100% and 95%, respectively. Besides, the LD50 with Rhipicephalus sanguineus [3] was found to be 0.89 µg. Moreover, in the test with Haemonchus contortus, the LD99 was 16 µM.

In turn, `CC1(C)C(C=C(Cl)Cl)C1C(=O)OCc1cccc(Oc2ccccc2)c1` (configuration not stated) gave an LD50 in the test with Rhipicephalus sanguineus [3] of 0.14 µg.

On to `CC/C(=N\OCC1CC1)c1cc(Cl)ccc1NS(=O)(=O)C(F)(F)F`, for which the LC50 in the test with Ctenocephalides felis [1] worked out at 8 ng/cm2. Also, the Activity with Ctenocephalides felis [2] and with Rhipicephalus sanguineus [4] was 100% in each case. This compound also registered an LD50 in the test with Rhipicephalus sanguineus [3] of 1.2 µg. For the same compound, the LD99 with Haemonchus contortus came to 36 µM.

Turning to `CCO/N=C(\C)c1cc(Br)ccc1NS(=O)(=O)C(F)(F)F`, in the test with Ctenocephalides felis [1], the LC50 came to 11 ng/cm2. Also, the Activity with Ctenocephalides felis [2] and in the test on Rhipicephalus sanguineus [4] was 100% throughout. Also, the LD50 in the test on Rhipicephalus sanguineus [3] was 1.2 µg. In the test on Haemonchus contortus, this compound had an LD99 of more than 13 µM.

In turn, `CC/C(=N\OCc1ccc(F)cc1F)c1cc(Cl)ccc1NS(=O)(=O)C(F)(F)F` returned an Activity in the test on Ctenocephalides felis [5] of 95%. This compound registered an LD99 in the test on Haemonchus contortus of 7.2 µM.

In the case of `CCC/C(=N\OCc1ccc(C(F)(F)F)cc1)c1cc(Cl)ccc1NS(=O)(=O)C(F)(F)F`, the Activity in the test on Ctenocephalides felis [5] was 36%. Moreover, in the test with Haemonchus contortus, the LD99 was 3.2 µM.

`O=S(=O)(Nc1ccc(Cl)cc1/C=N/OCc1ccc(Cl)cc1Cl)C(F)(F)F` registered an Activity in the test with Ctenocephalides felis [5] of 12%. In the test with Haemonchus contortus, the LD99 turned out to be 2 µM.

Consider `CC/C(=N\OC1CCCC1)c1cc(Cl)ccc1NS(=O)(=O)C(F)(F)F`, for which the LC50 in the test on Ctenocephalides felis [1] was 21 ng/cm2. Further, the Activity in the test on Ctenocephalides felis [2] and with Rhipicephalus sanguineus [4] was 100% throughout. In the test with Rhipicephalus sanguineus [3], this compound registered an LD50 of 1.5 µg. The same compound returned an LD99 in the test with Haemonchus contortus of 25 µM.

As for `CC/C(=N\OC(C)(C)C)c1cc(Cl)ccc1NS(=O)(=O)C(F)(F)F`, in the test on Ctenocephalides felis [1], the LC50 was determined as 43 ng/cm2. In addition, the Activity in the test with Ctenocephalides felis [2] amounted to 100%; in the test on Rhipicephalus sanguineus [4] it was 90%. The LD50 in the test on Rhipicephalus sanguineus [3] came to 1.5 µg.

Turning to `CC/C(=N\OC1CCCCC1)c1cc(Cl)ccc1NS(=O)(=O)C(F)(F)F`, the Activity in the test on Ctenocephalides felis [2] and in the test with Rhipicephalus sanguineus [4] was 100% throughout. This compound registered an LD50 in the test with Rhipicephalus sanguineus [3] of 5.7 µg.

In the test with Ctenocephalides felis [1], `C#CCO/N=C(\C)c1cc(Cl)ccc1NS(=O)(=O)C(F)(F)F` gave an LC50 of 11 ng/cm2. Besides, the Activity with Ctenocephalides felis [2] and in the test with Rhipicephalus sanguineus [4] was 100% in each case. For the same compound, in the test on Rhipicephalus sanguineus [3], the LD50 came out at 0.99 µg.

For `C/C(=N\Oc1ccc(F)cc1)c1cc(Cl)ccc1NS(=O)(=O)C(F)(F)F`, the LC50 in the test with Ctenocephalides felis [1] is 10 ng/cm2. The Activity in the test on Ctenocephalides felis [2] and in the test on Rhipicephalus sanguineus [4] was 100% in each case. In addition, the LD50 with Rhipicephalus sanguineus [3] was found to be 1.3 µg. The LD99 with Haemonchus contortus was found to be 4.6 µM.

On to `O=S(=O)(Nc1ccc(Cl)cc1/C(=N/OCc1ccc(C(F)(F)F)cc1C(F)(F)F)c1ccccc1)C(F)(F)F`, for which the Activity in the test on Ctenocephalides felis [5] turned out to be 21%. In the test on Haemonchus contortus, this compound gave an LD99 of 3.1 µM.

With `C/C(=N\Oc1ccccc1)c1cc(Cl)ccc1NS(=O)(=O)C(F)(F)F`, the Activity in the test with Ctenocephalides felis [5] was 6%. The same compound registered an LD99 with Haemonchus contortus of 14 µM.

For the compound `C=CCO/N=C(\CC)c1cc(Cl)ccc1NS(=O)(=O)C(F)(F)F`, the LC50 in the test with Ctenocephalides felis [1] worked out at 21 ng/cm2. The Activity in the test with Ctenocephalides felis [2] and with Rhipicephalus sanguineus [4] was 100% in each case. This compound also registered an LD50 in the test on Rhipicephalus sanguineus [3] of 0.67 µg. In addition, the LD99 in the test with Haemonchus contortus came to 32 µM.

The compound `CC/C(=N\OCc1ccc(C(F)(F)F)cc1)c1cc(Cl)ccc1NS(=O)(=O)C(F)(F)F` registered an LC50 in the test with Ctenocephalides felis [1] of 17 ng/cm2. Also, the Activity in the test with Ctenocephalides felis [2] was 98%; with Rhipicephalus sanguineus [4], 90%. This compound came in with an LD50 in the test on Rhipicephalus sanguineus [3] of 2.7 µg. The LD99 in the test on Haemonchus contortus is 0.84 µM.

In the test with Ctenocephalides felis [5], `CC/C(=N\OCc1ccc(Cl)cc1Cl)c1cc(Cl)ccc1NS(=O)(=O)C(F)(F)F` displayed an Activity of 94%. This compound came in with an LD99 with Haemonchus contortus of 0.84 µM.

As for `C/C(=N\OCC1CCCC1)c1cc(Cl)ccc1NS(=O)(=O)C(F)(F)F`, the LC50 in the test with Ctenocephalides felis [1] came to 18 ng/cm2. The Activity came to 97% with Ctenocephalides felis [2] and 100% with Rhipicephalus sanguineus [4]. In addition, the LD50 in the test with Rhipicephalus sanguineus [3] came out at 2.2 µg. In the test on Haemonchus contortus, this compound had an LD99 of 7.5 µM.

As for `C/C(=N\OC(C)(C)C)c1cc(Cl)ccc1NS(=O)(=O)C(F)(F)F`, the LC50 with Ctenocephalides felis [1] came out at 41 ng/cm2. Moreover, the Activity with Ctenocephalides felis [2] was 100%; with Rhipicephalus sanguineus [4], 92%. In the test with Rhipicephalus sanguineus [3], this compound displayed an LD50 of 1.4 µg. The same compound came in with an LD99 in the test with Haemonchus contortus of 16 µM.

On to `CC/C(=N\Oc1ccc(F)cc1)c1cc(Cl)ccc1NS(=O)(=O)C(F)(F)F`, for which the LC50 in the test on Ctenocephalides felis [1] is given as 35 ng/cm2. Besides, the Activity was determined as 100% with Ctenocephalides felis [2] and 92% in the test with Rhipicephalus sanguineus [4]. This compound gave an LD50 in the test on Rhipicephalus sanguineus [3] of 1.5 µg. In the test with Haemonchus contortus, the LD99 amounted to 3.5 µM.

As to `COCCO/N=C(\C)c1cc(Cl)ccc1NS(=O)(=O)C(F)(F)F`, the LC50 in the test with Ctenocephalides felis [1] was 12 ng/cm2. In addition, the Activity in the test on Ctenocephalides felis [2] and in the test on Rhipicephalus sanguineus [4] was 100% in each case. In the test on Rhipicephalus sanguineus [3], the LD50 turned out to be 0.71 µg.

As to `CCC/C(=N\OCc1ccc(C(F)(F)F)cc1C(F)(F)F)c1cc(Cl)ccc1NS(=O)(=O)C(F)(F)F`, the Activity in the test with Ctenocephalides felis [5] was found to be 79%. This compound also had an LD99 in the test on Haemonchus contortus of 2.5 µM.

`CC(C)/C(=N\Oc1ccc(Cl)cc1)c1cc(Cl)ccc1NS(=O)(=O)C(F)(F)F`: the LC50 with Ctenocephalides felis [1] is given as 71 ng/cm2. Moreover, the Activity with Ctenocephalides felis [2] came out at 100%; in the test on Rhipicephalus sanguineus [4], 65%. Further, in the test on Rhipicephalus sanguineus [3], the LD50 was 1.7 µg. The compound also registered an LD99 with Haemonchus contortus of 11 µM.

Take `CC(C)/C(=N\OCc1ccc(C(F)(F)F)cc1)c1cc(Cl)ccc1NS(=O)(=O)C(F)(F)F`: the Activity in the test with Ctenocephalides felis [5] was 12%. In the test on Haemonchus contortus, this compound showed an LD99 of 2.6 µM.

Take `CC(C)/C(=N\OCc1ccc(C(F)(F)F)cc1C(F)(F)F)c1cc(Cl)ccc1NS(=O)(=O)C(F)(F)F`: the Activity in the test with Ctenocephalides felis [5] was 10%. Moreover, in the test with Haemonchus contortus, the LD99 amounted to 1.5 µM.

`C#CCO/N=C(\CC)c1cc(Cl)ccc1NS(=O)(=O)C(F)(F)F` gave an LC50 in the test on Ctenocephalides felis [1] of 27 ng/cm2. For the same compound, the Activity in the test on Ctenocephalides felis [2] and with Rhipicephalus sanguineus [4] was 100% in each case. For the same compound, the LD50 with Rhipicephalus sanguineus [3] turned out to be 0.86 µg. Besides, the LD99 in the test on Haemonchus contortus amounted to 20 µM.

In the test with Ctenocephalides felis [1], `CC/C(=N\OCc1cccs1)c1cc(Cl)ccc1NS(=O)(=O)C(F)(F)F` yielded an LC50 of 7 ng/cm2. Besides, the Activity in the test on Ctenocephalides felis [2] was determined as 100%; in the test with Rhipicephalus sanguineus [4], 70%. This compound showed an LD50 in the test with Rhipicephalus sanguineus [3] of 2.5 µg. Moreover, the LD99 in the test with Haemonchus contortus worked out at 35 µM.

In the test on Ctenocephalides felis [1], `C/C(=N\OCC1CC1)c1cc(Cl)ccc1NS(=O)(=O)C(F)(F)F` had an LC50 of 5 ng/cm2. For the same compound, the Activity in the test with Ctenocephalides felis [2] and with Rhipicephalus sanguineus [4] was 100% throughout. The LD50 in the test with Rhipicephalus sanguineus [3] came to 1 µg.

In turn, `C/C(=N\OCC(F)(F)F)c1cc(Cl)ccc1NS(=O)(=O)C(F)(F)F` yielded an LC50 in the test on Ctenocephalides felis [1] of 6 ng/cm2. Moreover, the Activity in the test on Ctenocephalides felis [2] is 100%; in the test on Rhipicephalus sanguineus [4] it was 82%. Further, the LD50 with Rhipicephalus sanguineus [3] came to 0.94 µg. This compound also came in with an LD99 in the test on Haemonchus contortus of 18 µM.

In turn, `O=S(=O)(Nc1ccc(Cl)cc1/C=N/OCc1ccc(C(F)(F)F)cc1C(F)(F)F)C(F)(F)F` came in with an Activity in the test on Ctenocephalides felis [5] of 10%. The LD99 with Haemonchus contortus worked out at 0.59 µM.

Consider `CC/C(=N\OCc1ccc(C(C)(C)C)cc1)c1cc(Cl)ccc1NS(=O)(=O)C(F)(F)F`, for which the Activity with Ctenocephalides felis [5] amounted to 8%. This compound also came in with an LD99 in the test on Haemonchus contortus of 6.9 µM.

On to `CC/C(=N\OCc1ccc(Cl)cc1)c1cc(Cl)ccc1NS(=O)(=O)C(F)(F)F`, for which, in the test on Ctenocephalides felis [1], the LC50 was 12 ng/cm2. The figures for the Activity in the test with Ctenocephalides felis [2] and with Rhipicephalus sanguineus [4] were 100% and 83%, respectively. Also, the LD50 with Rhipicephalus sanguineus [3] came out at 2.5 µg. In addition, the LD99 in the test on Haemonchus contortus worked out at 1.7 µM.
